Biological target: HPK1 (Homo sapiens (Human), UniProt Q92918, S171E/T165E)
Test: HPK1-FL HTRF Enzymatic Assay (HTRF)
Format: biochemical
Details: HPK full length T165E S171E 0.125 nM, ATP 1 mM, Biotin-SLP76 100 nM, read-out: HPK1 Ki (nM), H = HTRF
Description: Exemplary compounds of Formula (I) were tested to assess compound inhibition of HPK-1. The Ki for each exemplary compound was determined
Example B1: HPK1-FL HTRF Enzymatic Assay (“HTRF”)
HPK-FL enzyme phosphorylates Biotin-SLP-76 substrate in the presence of ATP at 1 mM and varying concentrations of test compound. Product is detected by FRET using Eu-anti-pSLP76 Ab and SA-XL665. Also see www.cisbio.com/HTRF for additional HTRF technology information.
• Echo555 compound dispenser • Agilent Bravo • Perkin Elmer Envision Final Assay Conditions:
Materials: • Assay plate: White ProxiPlate 384 F (PerkinElmer cat #6008289) • Kinase: HPK full length double mutant • Substrate: Biotin-SLP76 • ATP: 100 mM ATP • BSG: 2% BSG • DMSO: DMSO (Sigma cat #34869-100ML) • Reaction Buffer: H2O/50 mM HEPES, pH 7.5/10 mM MgCl2/2 mM TCEP/0.01% Brij-35/0.01% BSG • Detection mix:Eu-anti-pSLP76/SA-XL665 (Cisbio, #610SAXAC) Assay Procedure Ki determination:
To a 384 well Proxiplate with 80 nL compound or DMSO spotted on was added 4 μl/well kinase mix. The mixture was preincubated for 30 minutes and then 4 μl/well substrate mix was added. The solution was incubated for 60 min and then 4 μl/well detection mix was added. The solution was incubated for another 60 min. The plates were then loaded onto a Perkin Elmer Envision and the TR-FRET signal was measured at 615 and 665 nm. A ratio of […] was used to calculate the % activity at each concentration of compound.

HPK1, sequence (Q92918 whole entry T165E/S171E): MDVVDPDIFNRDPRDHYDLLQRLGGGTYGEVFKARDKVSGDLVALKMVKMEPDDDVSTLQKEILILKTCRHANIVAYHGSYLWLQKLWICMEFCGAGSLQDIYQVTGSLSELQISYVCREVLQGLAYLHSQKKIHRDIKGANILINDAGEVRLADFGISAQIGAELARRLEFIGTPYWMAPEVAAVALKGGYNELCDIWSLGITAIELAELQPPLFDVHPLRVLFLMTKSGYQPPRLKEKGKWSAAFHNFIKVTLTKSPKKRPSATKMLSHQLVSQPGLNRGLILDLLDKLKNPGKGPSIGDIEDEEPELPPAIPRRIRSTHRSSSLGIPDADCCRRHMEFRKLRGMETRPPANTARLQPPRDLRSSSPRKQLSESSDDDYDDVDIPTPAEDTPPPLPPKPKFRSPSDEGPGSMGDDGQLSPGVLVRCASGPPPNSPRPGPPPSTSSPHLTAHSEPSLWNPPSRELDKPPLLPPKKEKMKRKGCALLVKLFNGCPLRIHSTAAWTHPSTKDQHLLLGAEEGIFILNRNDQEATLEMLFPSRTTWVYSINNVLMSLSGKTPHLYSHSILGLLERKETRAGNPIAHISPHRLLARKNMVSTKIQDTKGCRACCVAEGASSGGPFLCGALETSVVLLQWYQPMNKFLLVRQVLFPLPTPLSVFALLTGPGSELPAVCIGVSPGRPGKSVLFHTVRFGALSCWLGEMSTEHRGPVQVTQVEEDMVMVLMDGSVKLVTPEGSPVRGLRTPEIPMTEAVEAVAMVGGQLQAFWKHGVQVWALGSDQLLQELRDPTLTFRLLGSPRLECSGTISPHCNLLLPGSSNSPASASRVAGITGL

| SMILES | Ki |
| --- | --- |
| Cc1cc(N2CCNCC2)ncc1-c1cc2cc(Nc3cc4n(n3)CC(=O)N(C)CC4)ncc2cc1F [Compound 198, 2-((7-fluoro-6-(4-methyl-6-(piperazin-1-yl)pyridin-3-yl)isoquinolin-3-yl)amino)-6-methyl-5,6-dihydro-4H-pyrazolo[1,5-d][1,4]diazepin-7(8H)-one] | 4.2 nM |
| Cc1c(-c2cc3cc(Nc4cc5n(n4)CC(=O)N([C@@H](C)CO)CC5)ncc3cc2F)cnc2c1NCCO2 (single isomer, unassigned) [Compound 148a] | 0.013 nM |
| Cc1c(-c2cc3cc(Nc4cc5n(n4)CC(=O)N(C(C)C)C[C@H]5O)ncc3cc2F)cnc2c1NCCO2 (single isomer, unassigned) [Compound 141a] | 0.033 nM |
| Cc1c(-c2cc3cc(Nc4cc5n(n4)CC(=O)NCC5)ncc3cc2F)cnc2c1NCCOC2 [Compound 230, 2-((7-fluoro-6-(9-methyl-1,2,3,5-tetrahydropyrido[3,2-e][1,4]oxazepin-8-yl)isoquinolin-3-yl)amino)-5,6-dihydro-4H-pyrazolo[1,5-d][1,4]diazepin-7(8H)-one] | 0.793 nM |
| Cc1c(-c2cc3cc(Nc4cc5n(n4)CC(=O)NCC5)ncc3cc2F)cnc2c1NCCC2=O [Compound 196, 2-((7-fluoro-6-(4-methyl-8-oxo-5,6,7,8-tetrahydro-1,5-naphthyridin-3-yl)isoquinolin-3-yl)amino)-5,6-dihydro-4H-pyrazolo[1,5-d][1,4]diazepin-7(8H)-one] | 0.1 nM |
| Cc1c(-c2cc3cc(Nc4cc5n(n4)CC(=O)N(C)CC5)ncc3cc2F)cnc2c1NCC(C)(C)C2=O [Compound 240, 2-((7-fluoro-6-(4,7,7-trimethyl-8-oxo-5,6,7,8-tetrahydro-1,5-naphthyridin-3-yl)isoquinolin-3-yl)amino)-6-methyl-5,6-dihydro-4H-pyrazolo[1,5-d][1,4]diazepin-7(8H)-one] | 0.014 nM |
| CO[C@@H]1CCNc2c1ncc(-c1cc(F)c3cnc(Nc4cc5n(n4)CC(=O)N(C)CC5)cc3c1)c2C (single isomer, unassigned) [Compound 234b] | 2.1 nM |
| Cc1c(-c2cc3cc(Nc4cc5n(n4)CC(=O)N(C)CC5)ncc3cc2F)ccc2c1CNC2 [Compound 221, 2-((7-fluoro-6-(4-methylisoindolin-5-yl)isoquinolin-3-yl)amino)-6-methyl-5,6-dihydro-4H-pyrazolo[1,5-d][1,4]diazepin-7(8H)-one] | 97 nM |
| Cc1c(-c2cc3cc(Nc4cc5n(n4)Cc4nccn4CC5)ncc3cc2F)cnc2c1NCC[C@@H]2O (single isomer, unassigned) [Compound 243a] | 0.013 nM |
| Cc1ccncc1-c1ccc2cnc(Nc3cc4n(n3)CC(=O)N(C(C)C)CC4)cc2c1 [Compound 122, 6-isopropyl-2-[[6-(4-methyl-3-pyridyl)-3-isoquinolyl]amino]-5,8-dihydro-4H-pyrazolo[1,5-d][1,4]diazepin-7-one] | 1 nM |
| Cc1c(-c2cc3cc(Nc4cc5n(n4)CC(=O)N(C(C)C)CC5)ncc3cc2F)cnc2oc(=O)[nH]c12 [Compound 142, 6-(7-fluoro-3-((6-isopropyl-7-oxo-5,6,7,8-tetrahydro-4H-pyrazolo[1,5-d][1,4]diazepin-2-yl)amino)isoquinolin-6-yl)-7-methyloxazolo[5,4-b]pyridin-2(1H)-one] | 1.9 nM |
| CNCc1cccc(-c2cc3cc(Nc4cc5n(n4)CC(=O)N(C)CC5)ncc3cc2F)c1C [Compound 217, 2-((7-fluoro-6-(2-methyl-3-((methylamino)methyl)phenyl)isoquinolin-3-yl)amino)-6-methyl-5,6-dihydro-4H-pyrazolo[1,5-d][1,4]diazepin-7(8H)-one] | 64 nM |
| Cc1ncc(-c2cc3cc(Nc4cc5n(n4)CC(=O)N(C(C)C)CC5)ncc3cc2F)c(C)c1N [Compound 126, 2-((6-(5-amino-4,6-dimethylpyridin-3-yl)-7-fluoroisoquinolin-3-yl)amino)-6-isopropyl-5,6-dihydro-4H-pyrazolo[1,5-d][1,4]diazepin-7(8H)-one] | 0.148 nM |
| Cc1c(-c2cc3cc(Nc4cc5n(n4)CC(=O)N(C)CC5)ncc3cc2F)cnc2nc[nH]c12 [Compound 175, 2-((7-fluoro-6-(7-methyl-1H-imidazo[4,5-b]pyridin-6-yl)isoquinolin-3-yl)amino)-6-methyl-5,6-dihydro-4H-pyrazolo[1,5-d][1,4]diazepin-7(8H)-one] | 0.14 nM |
| Cc1c(N)cncc1-c1ccc2cnc(Nc3cc4n(n3)CC(=O)N(C(C)C)CC4)cc2c1Cl [Compound 152, 2-((6-(5-amino-4-methylpyridin-3-yl)-5-chloroisoquinolin-3-yl)amino)-6-isopropyl-5,6-dihydro-4H-pyrazolo[1,5-d][1,4]diazepin-7(8H)-one] | 0.028 nM |

Now from value to molecule:

| Ki | SMILES |
| --- | --- |
| 0.037 nM | Cc1c(N)cncc1-c1cc2cc(Nc3cc4n(n3)CC(=O)N(C)CC4(C)O)ncc2cc1F (single isomer, unassigned) [Compound 185b] |
| 0.12 nM | Cc1c(-c2cc3cc(Nc4cc5n(n4)CC(=O)N(C)CC5)ncc3cc2F)cnc2cn[nH]c12 [Compound 186, 2-((7-fluoro-6-(7-methyl-1H-pyrazolo[4,3-b]pyridin-6-yl)isoquinolin-3-yl)amino)-6-methyl-5,6-dihydro-4H-pyrazolo[1,5-d][1,4]diazepin-7(8H)-one] |
| 0.01 nM | Cc1c(N)cncc1-c1cc2cc(Nc3cc4n(n3)CC(=O)N(C)CC43CC3)ncc2cc1F [Compound 111, 2-[[6-(5-amino-4-methyl-3-pyridyl)-7-fluoro-3-isoquinolyl]amino]-6-methyl-spiro[5,8-dihydropyrazolo[1,5-d][1,4]diazepine-4,1′-cyclopropane]-7-one] |
| 2.6 nM | Cc1c(N)cncc1-c1cc2cc(Nc3cc4n(n3)C[S+]([O-])CC4)ncc2cc1F (racemic) [Compound 191, (+/-)-2-((6-(5-amino-4-methylpyridin-3-yl)-7-fluoroisoquinolin-3-yl)amino)-4,5-dihydro-7H-pyrazolo[1,5-c][1,3]thiazine 6-oxide] |
| 0.032 nM | Cc1c(N)cncc1-c1cc2cc(Nc3cc4n(n3)CC(=O)N(C(C)C#N)CC4)ncc2cc1F (single isomer, unassigned) [Compound 154b] |
| 0.016 nM | Cc1c(-c2cc3cc(Nc4cc5n(n4)CC(=O)N(C)CC54CC4)ncc3cc2F)cnc2c1NCC[C@@]2(C)O (single isomer, unassigned) [Compound 229b] |
| 0.019 nM | Cc1c(N)cncc1-c1cc2cc(Nc3cc4n(n3)CC(=O)N(C(C)CO)CC4)ncc2cc1F (single isomer, unassigned) [Compound 149b] |
| 0.169 nM | Cc1c(N)cncc1-c1cc2cc(Nc3cc4n(n3)CC(=O)N(C)C[C@@]4(C)O)ncc2cc1F (single isomer, unassigned) [Compound 185a] |
| 0.09 nM | Cc1c(-c2cc3cc(Nc4cc5n(n4)CC(=O)N(C)CC54CC4)ncc3cc2F)cnc2c1NCC[C@]2(C)O (single isomer, unassigned) [Compound 229a] |
| 0.013 nM | Cc1c(-c2cc3cc(Nc4cc5n(n4)CC(=O)N(C)CC54CC4)ncc3cc2F)cnc2c1NCC[C@@H]2O (single isomer, unassigned) [Compound 205b] |
| 0.18 nM | Cc1c(CS(C)(=O)=O)cncc1-c1cc2cc(Nc3cc4n(n3)CC(=O)N(C)CC4)ncc2cc1F [Compound 204, 2-((7-fluoro-6-(4-methyl-5-((methylsulfonyl)methyl)pyridin-3-yl)isoquinolin-3-yl)amino)-6-methyl-5,6-dihydro-4H-pyrazolo[1,5-d][1,4]diazepin-7(8H)-one] |
